This is an account of results in patent US20250057890A1, “FUNCTIONAL FOOD CONTAINING BONITO-DERIVED EXTRACT FOR PREVENTING OR AMELIORATING NEUROPSYCHIATRIC DISORDERS” (MARUHACHI MURAMATSU, INC., priority 2022, published 2025).

The structures appear in SMILES notation.

For test [1], the system named is MG6 cells from mouse brain microglia. In words: Anti-inflammatory action: TNF-α production in LPS-activated MG6 cells (ELISA). The class given is cell-based. Conditions: for anti-inflammatory activity: MG6 cells, LPS, fractions or single components; for anti-inflammatory action compared to katsuobushi extract: known components of katsuobushi, each in isolation. As for the experimental part: MG6 cells from mouse brain microglia were purchased from the RIKEN BioResource Research Center (BRC), and the anti-inflammatory action of various extracts, including from katsuobushi, were assayed (see FIG. 1). First, a 96-well plate was seeded with the MG6 cells (5×10^3 cells/well·90 μL), and a culture was started in a CO2 incubator (37° C., CO2 level 5%). Next the various extracts were added to the wells after 0.5 hours, followed by the addition of lipopolysaccharide (LPS) 1 hour after that to activate the MG6 cells and induce an inflammatory state. After 6 hours, 10 μL of culture supernatant was collected from each well, after which 10 μL of a viable cell counting reagent (WST-8) was added to each well, and absorbance at 450 nm (reference wavelength 630 nm) was measured with a plate reader after 1 hour and 2 hours.
The previously collected culture supernatant was diluted 25-fold with a buffer, and the levels of TNF-α, a type of inflammatory cytokine, produced in the culture supernatant was measured via ELISA (using ELISA MAX™ Deluxe Set Mouth TNF-α, a kit manufactured by BioLegend). In the LPS addition test section, anti-inflammatory action was determined to be higher when the TNF-α production levels were more reduced through the prior addition of the various extracts, and lower the less said levels were reduced.
(In general: ELISA stands for enzyme-linked immunosorbent assay.)

The subject of test [2] is microglia in the hippocampus. Conditions: Liang et al., International Journal of Neuroscience, 2022; cited from earlier work.
The subject of test [3] is rat brain capillary endothelial cells (RBECs, primary cells). Nature of the test: Protein expression of tight-junction-associated molecules (claudin-5 and occludin) in RBECs, western blot. The test is classed as cell-based. (In western blotting, separated proteins are transferred to a membrane and probed.)
Procedure: First, a 48-well plate was seeded with the RBECs (2×10^5 cells/well·440 μL), and a culture was started in a CO2 incubator (37° C., CO2 level 5%). Next, after 72 hours, the medium in each well was replaced with an evaluation medium prepared by adding the various extracts, and, 24 hours and 72 hours after that, RNA and protein were recovered from the cultured cells a NucleoSpin RNA/Protein kit (Takara Bio) according to the protocol of the kit. The extracted protein was evaluated via western blot, and DNA obtained by reverse transcription of the extracted RNA was evaluated via real-time PCR.
(§1) First, a 48-well plate was seeded with the RBECs (2×10^5 cells/well·440 μL), and a culture was started in a CO2 incubator (37° C., CO2 level 5%). […] The extracted protein was evaluated via western blot, and DNA obtained by reverse transcription of the extracted RNA was evaluated via real-time PCR (real-time PCR data not shown here).
as §1

Regarding `CC(O)C(=O)O` (centres unmarked) [lactic acid], in test [1], the anti-inflammatory activity result was “showed anti-inflammatory activity”. In addition, in test [2], the “anti-inflammatory activity (literature)” value is “already been reported to have anti-inflammatory activity”.

Turning to `O=C[C@H](O)[C@H](O)[C@H](O)COP(=O)(O)O` [ribose 5-phosphate], in test [1], the anti-inflammatory activity entry is recorded as “anti-inflammatory activity was observed”.

In the case of `O=C(O)CCC(=O)O` [succinic acid], the anti-inflammatory activity entry in test [1] is reported as “anti-inflammatory activity was observed”.

For `O=c1[nH]cnc2nc[nH]c12` [hypoxanthine], in test [1], the anti-inflammatory activity entry is “anti-inflammatory activity was observed”.

Consider `N[C@@H](Cc1c[nH]cn1)C(=O)O` [histidine], for which the “anti-inflammatory action compared to katsuobushi extract” value in test [1] is recorded as “none of these substances in isolation showed anti-inflammatory action comparable to katsuobushi extract”. For the same compound, in test [3] (added concentration 0.836 mg/ml, after 24 hours, compared to serum-free medium), the claudin-5 protein expression result is on record as “elevated”. The “expression of tight-junction-associated molecules (claudin-5 and occludin) at the genetic level and the protein level” value in test [3] (rat cerebrovascular endothelial cells) is “elevated expression”.

With `NCCC(=O)N[C@@H](Cc1cnc[nH]1)C(=O)O` [carnosine], the “anti-inflammatory action compared to katsuobushi extract” value in test [1] is “none of these substances in isolation showed anti-inflammatory action comparable to katsuobushi extract”.

For the compound `Nc1ncnc2c1ncn2[C@@H]1O[C@H](COP(=O)(O)O)[C@@H](O)[C@H]1O` [AMP, adenosine 5′-monophosphate], the anti-inflammatory activity entry in test [1] is “anti-inflammatory activity was observed”.

Regarding `O=C(O)CO` [glycolic acid], in test [1], the anti-inflammatory activity result was “showed anti-inflammatory activity”.

As for `C[N+](C)(C)CC(=O)O` [betaine], the “anti-inflammatory action compared to katsuobushi extract” value in test [1] is “none of these substances in isolation showed anti-inflammatory action comparable to katsuobushi extract”.

Consider `CN(CC(=O)O)C(=N)N` [creatine], for which, in test [1], the “anti-inflammatory action compared to katsuobushi extract” value was “none of these substances in isolation showed anti-inflammatory action comparable to katsuobushi extract”.

Regarding `Cn1cncc1C[C@H](NC(=O)CCN)C(=O)O` [anserine], the “anti-inflammatory action compared to katsuobushi extract” value in test [1] is “none of these substances in isolation showed anti-inflammatory action comparable to katsuobushi extract”.
